The results in this text go back to patent US12227496B2 (BRISTOL-MYERS SQUIBB COMPANY, priority 2019, dated 2025).

pEC50: −log10 of the molar value.

This test has as its target T1, human FXR (Homo sapiens, UniProt Q96RI1).
T1 construct: expressed in transfected cells; host or cells: HEK293 cells stably carrying a 5xGal4-response-element firefly luciferase reporter, transiently transfected with pcDNA3.1-Gal4-FXR
T1 sequence (Q96RI1 262-486 limits assumed): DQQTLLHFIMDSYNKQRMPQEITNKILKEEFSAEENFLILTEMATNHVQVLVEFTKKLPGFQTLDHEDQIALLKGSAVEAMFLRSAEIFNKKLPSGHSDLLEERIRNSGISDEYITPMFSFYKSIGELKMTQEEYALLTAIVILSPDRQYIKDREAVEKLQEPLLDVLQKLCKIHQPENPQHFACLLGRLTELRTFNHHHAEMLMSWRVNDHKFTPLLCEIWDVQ
Nature of the test: transient human FXR/Gal4-luciferase reporter assay. The format is cell-based. As to conditions: Gal4-hFXR LBD fusion, luciferase reporter in HEK293 cells; response relative to 8 μM GW-4064. The gist of the method: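 HEK293 cells stably carrying a 5×Gal4-response-element firefly luciferase reporter were transiently transfected with Gal4-hFXR. They were then incubated overnight at 37 °C with compound serial dilutions in medium containing 10% charcoal/dextran-stripped FBS. Luminescence was read after Steady-Glo addition.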
The term pEC50 denotes the EC50 on a negative log10 scale, so that one unit is a factor of ten. Read a high pEC50 as a small EC50. `Cc1noc(-c2cccc(N(CC34CCC(c5nc(C)no5)(CC3)CC4)C(=O)C3CCCCC3)c2)n1` [Example 1, N-((4-(3-methyl-1,2,4-oxadiazol-5-yl)bicyclo[2.2.2]octan-1-yl)methyl)-N-(3-(3-methyl-1,2,4-oxadiazol-5-yl)phenyl)cyclohexanecarboxamide] had a negative-log EC50 (pEC50) of 6.13.

In the case of `Cn1nc(C23CCC(CN(C(=O)C4CCCOC4)c4cccc(-c5nc(C6CC6)no5)c4)(CC2)CC3)cc1C1CC1` (racemic) [Example 67, N-(3-(3-cyclopropyl-1,2,4-oxadiazol-5-yl)phenyl)-N-((4-(5-cyclopropyl-1-methyl-1H-pyrazol-3-yl)bicyclo[2.2.2]octan-1-yl)methyl)tetrahydro-2H-pyran-3-carboxamide], the pEC50 was 6.59.

`CCCc1ncc(-c2cccc(N(CC34CCC(c5nc(C6CC6)no5)(CC3)CC4)C(=O)C3CCCOC3)c2)o1` (racemic) [Example 30, N-((4-(3-cyclopropyl-1,2,4-oxadiazol-5-yl)bicyclo[2.2.2]octan-1-yl)methyl)-N-(3-(2-propyloxazol-5-yl)phenyl)tetrahydro-2H-pyran-3-carboxamide] showed a pEC50 of 6.84.

With `Cn1nc(-c2cccc(N(CC34CCC(c5nc(C6CC6)no5)(CC3)CC4)C(=O)C3CCOCC3)c2)cc1C1CC1` [Example 50, N-((4-(3-cyclopropyl-1,2,4-oxadiazol-5-yl)bicyclo[2.2.2]octan-1-yl)methyl)-N-(3-(5-cyclopropyl-1-methyl-1H-pyrazol-3-yl)phenyl)tetrahydro-2H-pyran-4-carboxamide], the pEC50 is 6.48.

`CCCc1ncc(-c2cccc(N(CC34CCC(c5nc(C6CC6)no5)(CC3)CC4)C(=O)C3CCCCC3)c2)o1` [Example 28, N-((4-(3-cyclopropyl-1,2,4-oxadiazol-5-yl)bicyclo[2.2.2]octan-1-yl)methyl)-N-(3-(2-propyloxazol-5-yl)phenyl)cyclohexanecarboxamide]: the pEC50 was 7.47.

On to `CCOc1ncc(-c2cccc(N(CC34CCC(c5nc(C)no5)(CC3)CC4)C(=O)C3CCCCC3)c2)o1` [Example 10, N-(3-(2-ethoxyoxazol-5-yl)phenyl)-N-((4-(3-methyl-1,2,4-oxadiazol-5-yl)bicyclo[2.2.2]octan-1-yl)methyl)cyclohexanecarboxamide], for which the negative-log EC50 (pEC50) was 7.15.

On to `COCc1coc(-c2cccc(N(CC34CCC(c5nc(C6CC6)no5)(CC3)CC4)C(=O)C3CCOCC3)c2)n1` [Example 53, N-((4-(3-cyclopropyl-1,2,4-oxadiazol-5-yl)bicyclo[2.2.2]octan-1-yl)methyl)-N-(3-(4-(methoxymethyl)oxazol-2-yl)phenyl)tetrahydro-2H-pyran-4-carboxamide], for which the pEC50 was 6.72.

With `COc1cc(-c2cccc(N(CC34CCC(c5nc(C6CC6)no5)(CC3)CC4)C(=O)C3CCCCC3)c2)ccn1` [Example 75, N-((4-(3-cyclopropyl-1,2,4-oxadiazol-5-yl)bicyclo[2.2.2]octan-1-yl)methyl)-N-(3-(2-methoxypyridin-4-yl)phenyl)cyclohexane carboxamide], the pEC50 is 6.89.

Regarding `CC(C)(C)c1nc(C23CCC(CN(C(=O)C4CCOCC4)c4cccc(-c5ccc(OC(F)F)cc5)c4)(CC2)CC3)no1` [Example 89, N-((4-(5-(tert-butyl)-1,2,4-oxadiazol-3-yl)bicyclo[2.2.2]octan-1-yl)methyl)-N-(4′-(difluoromethoxy)-[1,1′-biphenyl]-3-yl)tetrahydro-2H-pyran-4-carboxamide], the pEC50 was 7.02.

`CC1CN(C(=O)N(CC23CCC(c4nc(C5CC5)no4)(CC2)CC3)c2cccc(-c3nc(C4CC4)no3)c2)CC(C)O1` (stereo not drawn) [Example 63, N-((4-(3-cyclopropyl-1,2,4-oxadiazol-5-yl)bicyclo[2.2.2]octan-1-yl)methyl)-N-(3-(3-cyclopropyl-1,2,4-oxadiazol-5-yl)phenyl)-2,6-dimethylmorpholine-4-carboxamide] showed a pEC50 of 5.95.

The molecule `CN1CCC(C(=O)N(CC23CCC(c4cc(C5CC5)nn4C)(CC2)CC3)c2cccc(-c3cc(C4CC4)no3)c2)CC1` [Example 140, N-((4-(3-cyclopropyl-1-methyl-1H-pyrazol-5-yl)bicyclo[2.2.2]octan-1-yl)methyl)-N-(3-(3-cyclopropylisoxazol-5-yl)phenyl)-1-methylpiperidine-4-carboxamide] had a negative logarithm of the EC50 (pEC50) of 5.58.

For `O=C(C1CCCOC1)N(CC12CCC(c3nc(C4CC4)cs3)(CC1)CC2)c1cccc(-c2nc(C3CC3)no2)c1` (racemic) [Example 66, N-(3-(3-cyclopropyl-1,2,4-oxadiazol-5-yl)phenyl)-N-((4-(4-cyclopropylthiazol-2-yl)bicyclo[2.2.2]octan-1-yl)methyl)tetrahydro-2H-pyran-3-carboxamide], the pEC50 was 5.90.

With `O=C(C1CCC(F)(F)CC1)N(CC12CCC(c3nc(CC4CC4)no3)(CC1)CC2)c1cccc(-c2nc(CC3CC3)no2)c1` [Example 42, N-((4-(3-(cyclopropylmethyl)-1,2,4-oxadiazol-5-yl)bicyclo[2.2.2]octan-1-yl)methyl)-N-(3-(3-(cyclopropylmethyl)-1,2,4-oxadiazol-5-yl)phenyl)-4,4-difluorocyclohexane-1-carboxamide], the negative-log EC50 (pEC50) was 6.27.

As to `COc1cc(-c2cccc(N(CC34CCC(C#N)(CC3)CC4)C(=O)C3CCCCC3)c2)ccn1` [Example 99, N-((4-cyanobicyclo[2.2.2]octan-1-yl)methyl)-N-(3-(2-methoxypyridin-4-yl)phenyl)cyclohexanecarboxamide], the pEC50 is 5.82.

Molecule `Cn1nc(C2CC2)cc1C12CCC(CN(C(=O)C3CCOCC3)c3cccc(-c4cc(C5CC5)no4)c3)(CC1)CC2` [Example 139, N-((4-(3-cyclopropyl-1-methyl-1H-pyrazol-5-yl)bicyclo[2.2.2]octan-1-yl)methyl)-N-(3-(3-cyclopropylisoxazol-5-yl)phenyl)tetrahydro-2H-pyran-4-carboxamide] gave a pEC50 of 7.06.

Take `CC(C)(C)c1noc(C23CCC(CN(C(=O)C4CCOCC4)c4cccc(-c5cc(C6CC6)on5)c4)(CC2)CC3)n1` [Example 161, N-((4-(3-(tert-butyl)-1,2,4-oxadiazol-5-yl)bicyclo[2.2.2]octan-1-yl)methyl)-N-(3-(5-cyclopropylisoxazol-3-yl)phenyl)tetrahydro-2H-pyran-4-carboxamide]: the pEC50 is 7.11.

Consider `COc1ccc(-c2cccc(N(CC34CCC(c5nc(C)no5)(CC3)CC4)C(=O)C3CCCCC3)c2)cc1` [Example 76, N-(4′-methoxy-[1,1′-biphenyl]-3-yl)-N-((4-(3-methyl-1,2,4-oxadiazol-5-yl)bicyclo[2.2.2]octan-1-yl)methyl)cyclohexane carboxamide], for which the pEC50 is 6.41.

In turn, `O=C(C1CCCCC1)N(CC12CCC(c3nc(C4CC4)no3)(CC1)CC2)c1cccc(-c2nc(C(F)F)co2)c1` [Example 37, N-((4-(3-cyclopropyl-1,2,4-oxadiazol-5-yl)bicyclo[2.2.2]octan-1-yl)methyl)-N-(3-(4-(difluoromethyl)oxazol-2-yl)phenyl)cyclohexanecarboxamide] showed a pEC50 of 6.78.

`CCOc1ncc(-c2cccc(N(CC34CCC(c5nc(C6CC6)no5)(CC3)CC4)C(=O)C3CCC(F)(F)CC3)c2)o1` [Example 9, N-((4-(3-cyclopropyl-1,2,4-oxadiazol-5-yl)bicyclo[2.2.2]octan-1-yl)methyl)-N-(3-(2-ethoxyoxazol-5-yl)phenyl)-4,4-difluorocyclohexane-1-carboxamide] had a pEC50 of 6.85.

Turning to `CCOc1ncc(-c2cc(N(CC34CCC(c5noc(C(C)(F)F)n5)(CC3)CC4)C(=O)C3CCC(F)(F)CC3)ccc2F)cn1` [Example 106, N-((4-(5-(1,1-difluoroethyl)-1,2,4-oxadiazol-3-yl)bicyclo[2.2.2]octan-1-yl)methyl)-N-(3-(2-ethoxypyrimidin-5-yl)-4-fluorophenyl)-4,4-difluorocyclohexane-1-carboxamide], the pEC50 is 6.39.

Take `COC(=O)C1CC1c1cccc(N(CC23CCC(c4nc(C)no4)(CC2)CC3)C(=O)C2CCCCC2)c1` (single isomer, unassigned) [Example 101, Methyl 2-(3-(N-((4-(3-methyl-1,2,4-oxadiazol-5-yl)bicyclo[2.2.2]octan-1-yl)methyl)cyclohexanecarboxamido)phenyl)cyclopropane-1-carboxylate]: the negative-log EC50 (pEC50) was 6.61.

`O=C(C1CCC(F)(F)CC1)N(CC12CCC(c3nc(C4CC4)no3)(CC1)CC2)c1cccc(-c2nc(CC3CC3)no2)c1` [Example 43, N-((4-(3-cyclopropyl-1,2,4-oxadiazol-5-yl)bicyclo[2.2.2]octan-1-yl)methyl)-N-(3-(3-(cyclopropylmethyl)-1,2,4-oxadiazol-5-yl)phenyl)-4,4-difluorocyclohexane-1-carboxamide] gave a pEC50 of 6.42.

The molecule `CC(C)(C)c1nc(C23CCC(CN(C(=O)C4CCC(F)(F)CC4)c4cccc(-c5cc(C6CC6)on5)c4)(CC2)CC3)no1` [Example 162, N-((4-(5-(tert-butyl)-1,2,4-oxadiazol-3-yl)bicyclo[2.2.2]octan-1-yl)methyl)-N-(3-(5-cyclopropylisoxazol-3-yl)phenyl)-4,4-difluorocyclohexane-1-carboxamide] had a pEC50 of 7.39. Compared with the last molecule, the pEC50 is 0.97 log units higher.

As to `O=C(C1CCOCC1)N(CC12CCC(c3nc(C4CC4)no3)(CC1)CC2)c1cccc(-c2cnc(C3CC3)o2)c1` [Example 23, N-((4-(3-cyclopropyl-1,2,4-oxadiazol-5-yl)bicyclo[2.2.2]octan-1-yl)methyl)-N-(3-(2-cyclopropyloxazol-5-yl)phenyl)tetrahydro-2H-pyran-4-carboxamide], the pEC50 was 7.13.
